# Laboratory results taken from the supplement of paper PMC10307832.
# How the values were obtained:
# Experiment in all cases: relative viability (nuclei count vs DMSO), 5 days (fraction); higher = more cells survive
# [1] = compound: C(C(=O)C(=O)O)Br [Bromopyruvate] + O=C(c1cc(Cc2n[nH]c(=O)c3ccccc23)ccc1F)N1CCN(C(=O)C2CC2)CC1 [Olaparib] (partner 8 µM)
# In short: (§1)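 Each reported value is a median over duplicate plates. It expresses relative viability: treated-well nuclei count divided by vehicle-well nuclei count. Lung cancer cell lines in 1536-well plates were dosed by pin tool a day after seeding, alone with one drug or with a fixed anchor-drug dose plus five library-drug doses (not always all listed) in √10 steps, and nuclei were counted after 5 days.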
# [2] = compound: C(C(=O)C(=O)O)Br [Bromopyruvate] + CS(=O)(=O)CCNCc1ccc(-c2ccc3ncnc(Nc4ccc(OCc5cccc(F)c5)c(Cl)c4)c3c2)o1 [Lapatinib] (partner 2 µM)
# In short: as §1
# [3] = compound: C(C(=O)C(=O)O)Br [Bromopyruvate] + Cc1cc(Nc2cc(N3CCN(C)CC3)nc(Sc3ccc(NC(=O)C4CC4)cc3)n2)n[nH]1 [Tozasertib] (partner 0.1 µM)
# In short: as §1
# [4] = compound: C(C(=O)C(=O)O)Br [Bromopyruvate] + CC(C)C[C@H](NC(=O)[C@H](Cc1ccccc1)NC(=O)c1cnccn1)B(O)O [Bortezomib] (partner 0.002 µM)
# In short: as §1
Cell Line,relative viability ([1]; first compound 1 µM),relative viability ([1]; first compound 3.162 µM),relative viability ([1]; first compound 10 µM),relative viability ([1]; first compound 31.62 µM),relative viability ([1]; first compound 100 µM),relative viability ([2]; first compound 1 µM),relative viability ([2]; first compound 3.162 µM),relative viability ([2]; first compound 10 µM),relative viability ([2]; first compound 31.62 µM),relative viability ([2]; first compound 100 µM),relative viability ([3]; first compound 1 µM),relative viability ([3]; first compound 3.162 µM),relative viability ([3]; first compound 10 µM),relative viability ([3]; first compound 31.62 µM),relative viability ([3]; first compound 100 µM),relative viability ([4]; first compound 1 µM),relative viability ([4]; first compound 3.162 µM),relative viability ([4]; first compound 10 µM),relative viability ([4]; first compound 31.62 µM),relative viability ([4]; first compound 100 µM)
LU99A,0.267,0.237,0.241,0.26,0.134,1.05,0.898,1.12,0.992,1.09,0.344,0.253,0.285,0.233,0.325,1.18,1.11,1.05,1.05,1.26
ABC-1,0.775,–,–,–,0.566,1.34,1.24,1.36,1.13,1.18,0.178,0.195,0.155,0.146,0.166,0.342,0.31,–,0.347,0.332
NCI-H2405,0.879,0.859,0.916,–,0.402,1.13,1.12,1.13,0.965,1.14,0.806,0.779,0.723,0.804,0.785,1.02,0.992,1.19,0.954,1.04
NCI-H2009,0.672,0.688,0.727,0.645,0.461,0.903,0.783,0.877,0.874,0.909,0.743,0.78,0.767,0.723,0.444,1.02,1.02,0.918,0.897,0.768
PC-14,0.297,0.368,0.161,0.32,0.205,0.317,0.317,0.361,0.276,0.325,0.598,0.566,0.633,0.633,0.628,0.958,0.873,0.883,1,0.912
HARA,0.836,1.45,–,0.632,0.738,0.825,0.829,0.707,0.9,0.844,0.13,0.122,0.0899,0.13,0.102,1.11,1.13,1.13,1.17,1.15
NCI-H2126,0.912,0.879,0.988,0.939,0.923,0.752,0.78,0.764,0.787,0.751,0.881,0.858,0.825,0.879,0.783,1.1,1.05,1.12,1.14,1.15
NCI-H1437,0.647,0.664,0.656,0.62,0.627,0.845,0.768,1.1,0.801,0.804,0.384,0.414,0.447,0.397,0.451,0.546,0.458,0.485,0.405,0.626
NCI-H661,0.734,0.7,0.799,0.731,0.65,0.52,0.475,0.623,0.526,0.559,0.35,0.361,0.335,0.348,0.362,0.862,0.755,0.84,0.854,0.98
COR-L23,0.398,0.342,0.349,0.319,0.129,0.744,0.869,1.43,0.846,0.87,0.198,0.202,0.183,0.204,0.0755,0.943,0.939,1.12,0.975,0.486
COR-L 105,0.771,0.71,0.642,0.504,0.429,0.393,0.385,0.362,0.353,0.392,0.36,0.34,0.279,0.352,0.435,0.559,0.876,0.526,0.769,0.566
201T,0.862,0.824,0.86,0.84,0.88,1.03,1.06,1.03,0.942,1.02,0.916,0.954,0.99,1.02,0.982,1.11,1.08,1.11,1.1,1.03
HCC-44,0.939,0.932,0.969,0.938,0.972,0.959,1.02,1.11,1.1,1.02,0.953,1,0.997,1.02,0.882,0.914,0.897,0.872,0.918,0.962
NCI-H647,0.567,0.541,0.494,0.585,0.532,1.02,0.972,1.19,1.15,0.916,0.289,0.221,0.29,0.298,0.389,0.93,1.01,1,1.18,0.961
H3255,0.579,0.591,0.558,0.563,0.571,0.272,0.321,0.239,0.249,0.273,0.613,0.771,0.686,0.702,0.829,0.877,0.723,0.981,0.719,0.892
NCI-H650,0.324,0.378,0.379,0.278,0.206,1.12,1.16,0.966,0.885,0.769,0.656,0.756,0.804,0.714,0.698,0.946,0.819,0.856,0.897,0.973
NCI-H2085,0.794,0.81,0.772,0.818,0.551,0.761,0.784,0.771,0.815,0.707,0.821,0.917,0.84,0.558,0.311,1.07,1.18,1.15,1,0.792

Cell Line,relative viability ([1]; first compound 1 µM),relative viability ([1]; first compound 3.162 µM),relative viability ([1]; first compound 10 µM),relative viability ([1]; first compound 31.62 µM),relative viability ([1]; first compound 100 µM),relative viability ([2]; first compound 1 µM),relative viability ([2]; first compound 3.162 µM),relative viability ([2]; first compound 10 µM),relative viability ([2]; first compound 31.62 µM),relative viability ([2]; first compound 100 µM),relative viability ([3]; first compound 1 µM),relative viability ([3]; first compound 3.162 µM),relative viability ([3]; first compound 10 µM),relative viability ([3]; first compound 31.62 µM),relative viability ([3]; first compound 100 µM),relative viability ([4]; first compound 1 µM),relative viability ([4]; first compound 3.162 µM),relative viability ([4]; first compound 10 µM),relative viability ([4]; first compound 31.62 µM),relative viability ([4]; first compound 100 µM)
NCI-H2347,0.56,0.536,0.511,0.559,0.57,0.897,1.02,1.18,0.782,1.15,0.69,0.534,0.715,0.479,0.609,0.862,1.19,0.893,0.723,1.08
NCI-H596,0.755,0.645,0.671,0.754,0.782,1.11,1.08,1.15,1.01,1.16,0.83,0.943,1.1,0.878,0.412,–,1.14,1.01,0.915,1.03
NCI-H520,0.37,0.32,0.367,0.302,0.264,0.846,0.966,0.98,0.766,0.739,0.467,0.448,0.395,0.422,0.328,0.6,0.595,0.532,0.49,0.541
EKVX,0.73,0.87,0.843,0.861,0.874,0.218,0.213,0.343,0.207,0.211,0.427,0.391,0.458,0.377,0.421,1.08,0.993,1.12,1.11,1.1
EPLC-272H,0.783,0.885,0.971,0.932,0.699,1.02,1.06,0.839,0.916,1.05,0.257,0.372,0.241,0.325,0.215,0.844,0.952,1.03,0.862,1.08
NCI-H2228,0.813,0.635,0.711,0.567,0.647,1.45,0.99,1.2,1.12,1.1,0.241,0.252,0.239,0.284,0.248,0.857,1.15,1.36,0.817,0.946
LXF-289,1.13,1.03,1.1,1.15,1.04,0.967,0.879,0.935,0.914,0.959,0.184,0.179,0.213,0.152,0.172,1.04,0.966,0.975,1.03,1
NCI-H2023,0.452,0.455,0.465,0.544,0.551,0.803,0.922,0.743,0.877,0.793,0.31,0.4,0.348,0.482,0.39,0.95,1.09,0.969,0.914,1.06
NCI-H3122,0.647,0.663,0.631,0.586,0.604,0.982,1.05,0.961,1.01,1.01,0.381,0.378,0.468,0.417,0.382,1.02,1.01,1.07,0.971,1.02
NCI-H1755,0.935,0.865,0.854,0.924,0.936,0.988,1.02,1.02,1.07,1.19,0.59,0.568,0.495,0.702,0.693,0.967,0.938,0.994,1.01,1.03
HCC-78,0.762,0.811,0.944,0.776,0.848,1.04,0.893,0.702,1.03,0.591,0.375,0.404,0.481,0.311,0.536,0.282,0.615,0.569,0.563,0.495
LOU-NH91,1,0.902,0.974,0.95,1.01,0.818,0.706,0.735,0.815,0.824,0.729,0.643,0.654,0.685,0.672,0.499,0.499,0.518,0.49,0.472
NCI-H322M,0.715,0.82,0.743,0.737,0.687,0.573,0.548,0.485,0.624,0.612,0.433,0.546,0.495,0.461,0.484,1.2,1.25,1.12,1.18,1.26
HCC-827,0.757,0.706,0.732,0.616,0.588,0.205,0.191,0.167,0.193,0.214,0.375,0.391,0.386,0.421,0.435,1.05,1.07,1.03,1.08,1.05
SW 1573,0.555,0.469,0.475,0.358,0.0623,1.11,1.03,1.09,1.05,0.904,0.191,0.184,0.159,0.171,0.0582,0.935,1.02,1.18,1.08,0.392
NCI-H1975,0.858,0.79,1.11,0.755,0.605,0.876,1.08,1.01,0.838,0.833,0.733,0.811,0.806,0.729,0.646,0.423,0.431,0.475,0.405,0.5
